{
  "source": "paper PMC8643619",
  "about": "(Plant and Cell Physiology, 2021)",
  "key": {"PcAAE2": {"system": "PcAAE2", "assay": "coupled NADH oxidation assay", "assay_type": "biochemical, Pogostemon cablin", "conditions": "10 mM MgCl2, pH 7.5, 30°C"}, "PcAAE1": {"system": "PcAAE1", "assay": "coupled NADH oxidation assay", "assay_type": "biochemical, Pogostemon cablin", "conditions": "10 mM MgCl2, pH 7.5, 30°C"}},
  "data": [
    {"molecule": "CCCCCCC(=O)O", "note": "[Heptanoic acid]", "values": [
      {"measurement": "Km", "setting": "PcAAE2; 1 mM CoA, 5 mM ATP", "value": "84.5 ± 7.1", "unit": "µM"}
    ]},
    {"molecule": "Nc1ncnc2c1ncn2[C@@H]1O[C@H](COP(=O)(O)OP(=O)(O)OP(=O)(O)O)[C@@H](O)[C@H]1O", "note": "[ATP]", "values": [
      {"measurement": "Km", "setting": "PcAAE2; co-substrate 4-methylvaleric acid 1 mM, CoA 1 mM", "value": 160, "unit": "µM"},
      {"measurement": "Km", "setting": "PcAAE1; co-substrate isovaleric acid 1 mM, CoA 1 mM", "value": 89, "unit": "µM"}
    ]},
    {"molecule": "CC(C)CCC(=O)O", "note": "[4-Methylvaleric acid]", "values": [
      {"measurement": "Km", "setting": "PcAAE2; 1 mM CoA, 5 mM ATP", "value": "43.4 ± 5.1", "unit": "µM"}
    ]},
    {"molecule": "CC(C)(COP(=O)(O)OP(=O)(O)OC[C@H]1O[C@@H](n2cnc3c(N)ncnc32)[C@H](O)[C@@H]1OP(=O)(O)O)[C@@H](O)C(=O)NCCC(=O)NCCS", "note": "[CoA]", "values": [
      {"measurement": "Km", "setting": "PcAAE2; co-substrate 4-methylvaleric acid 1 mM, 5 mM ATP", "value": 40.2, "unit": "µM"},
      {"measurement": "Km", "setting": "PcAAE1; co-substrate isovaleric acid 1 mM, 5 mM ATP", "value": 28.2, "unit": "µM"}
    ]},
    {"molecule": "CCCCCC(=O)O", "note": "[Hexanoic acid]", "values": [
      {"measurement": "Km", "setting": "PcAAE2; 1 mM CoA, 5 mM ATP", "value": "41.5 ± 2.4", "unit": "µM"}
    ]},
    {"molecule": "CCCC(=O)O", "note": "[Butyric acid]", "values": [
      {"measurement": "Km", "setting": "PcAAE2; 1 mM CoA, 5 mM ATP", "value": "570 ± 86.5", "unit": "µM"},
      {"measurement": "Km", "setting": "PcAAE1; 1 mM CoA, 5 mM ATP", "value": "161 ± 5", "unit": "µM"}
    ]},
    {"molecule": "CC(C)CC(=O)O", "note": "[Isovaleric acid]", "values": [
      {"measurement": "Km", "setting": "PcAAE2; 1 mM CoA, 5 mM ATP", "value": "217 ± 13.1", "unit": "µM"},
      {"measurement": "Km", "setting": "PcAAE1; 1 mM CoA, 5 mM ATP", "value": "12.9 ± 0.8", "unit": "µM"}
    ]},
    {"molecule": "CC(C)CCCC(=O)O", "note": "[5-Methylhexanoic acid]", "values": [
      {"measurement": "Km", "setting": "PcAAE2; 1 mM CoA, 5 mM ATP", "value": "176 ± 20", "unit": "µM"}
    ]},
    {"molecule": "CCCCC(=O)O", "note": "[Valeric acid]", "values": [
      {"measurement": "Km", "setting": "PcAAE2; 1 mM CoA, 5 mM ATP", "value": "53.9 ± 2.7", "unit": "µM"}
    ]}
  ]
}
